Tests used:
[1] = system: Hsp90; test: Degradation of Hsp90 client proteins, Method 2: IC50 for Her2 degradation / inhibition of Hsp90 (MV-4-11 cell survival, Cell Counting Kit-8); type: cell-based, human; details: Table 9, MV-4-11 cells, 72 hours, read-out: IC50 Range
[2] = system: Her2; test: Degradation of Her2 in BT-474 cells, Method 1 (Western blot); type: cell-based, human; details: 0.5 μM, overnight
Description: A. Cells and Cell Culture Human high-Her2 breast carcinoma BT474 (HTB-20), SK-BR-3 (HTB-30) and MCF-7 breast carcinoma (HTB-22) from American Type Culture Collection, VA, USA were grown in Dulbecco's modified Eagle's medium with 4 mM L-glutamine and antibiotics ([…] penicillin and 100 ug/ml streptomycine; GibcoBRL). To obtain exponential cell growth, cells were trypsinized, counted and seeded at a cell density of 0.5×10^6 cells/ml regularly, every 3 days. All experiments were performed on day 1 after cell passage. B. Degradation of her2 in Cells after Treatment with a Compound of the Invention
BT-474 cells are treated with 0.5 μM, 2 μM, or 5 μM of 17AAG (a positive control) or 0.5 μM, 2 μM, or 5 μM of a compound of the invention overnight in DMEM medium. After treatment, each cytoplasmic sample is prepared from 1×10^6 cells by incubation of cell lysis buffer (#9803, cell Signaling Technology) on ice for 10 minutes. The resulting supernatant used as the cytosol fractions is dissolved with sample buffer for SDS-PAGE and run on a SDS-PAGE gel, blotted onto a nitrocellulose membrane by using semi-dry transfer. Non-specific binding to nitrocellulose is blocked with 5% skim milk in TBS with 0.5% Tween at room temperature for 1 hour, then probed with anti-Her2/ErB2 mAb (rabbit IgG, #2242, Cell Signaling) and anti-Tubulin (T9026, Sigma) as housekeeping control protein. […]

COCCN(C)c1ccc(-n2c(O)nnc2-c2cc(C(C)C)c(O)cc2O)c[n+]1[O-] [Compound 3d]
IC50 [1]: 180 nM

C=CCNC1=C2C[C@@H](C)C[C@H](OC)[C@H](O)[C@@H](C)/C=C(\C)[C@H](OC(N)=O)[C@@H](OC)/C=C\C=C(/C)C(=O)NC(=CC1=O)C2=O [Compound 17AAG, 17-allylamino-17-demethoxygeldanamycin]
degradation of Her2 [2]: partial degradation

From patent publication US9206162B2, “Triazole compounds that modulate Hsp90 activity” (Synta Pharmaceuticals Corp., priority 2006, dated 2015)
